Reference: patent publication US8268862B2, “Sirtuin modulating compounds” (Sirtris Pharmaceuticals, Inc., priority 2007, dated 2012)

Biological target: T1, SIRT1 (Homo sapiens, UniProt Q96EB6)
T1 sequence (Q96EB6 1-747): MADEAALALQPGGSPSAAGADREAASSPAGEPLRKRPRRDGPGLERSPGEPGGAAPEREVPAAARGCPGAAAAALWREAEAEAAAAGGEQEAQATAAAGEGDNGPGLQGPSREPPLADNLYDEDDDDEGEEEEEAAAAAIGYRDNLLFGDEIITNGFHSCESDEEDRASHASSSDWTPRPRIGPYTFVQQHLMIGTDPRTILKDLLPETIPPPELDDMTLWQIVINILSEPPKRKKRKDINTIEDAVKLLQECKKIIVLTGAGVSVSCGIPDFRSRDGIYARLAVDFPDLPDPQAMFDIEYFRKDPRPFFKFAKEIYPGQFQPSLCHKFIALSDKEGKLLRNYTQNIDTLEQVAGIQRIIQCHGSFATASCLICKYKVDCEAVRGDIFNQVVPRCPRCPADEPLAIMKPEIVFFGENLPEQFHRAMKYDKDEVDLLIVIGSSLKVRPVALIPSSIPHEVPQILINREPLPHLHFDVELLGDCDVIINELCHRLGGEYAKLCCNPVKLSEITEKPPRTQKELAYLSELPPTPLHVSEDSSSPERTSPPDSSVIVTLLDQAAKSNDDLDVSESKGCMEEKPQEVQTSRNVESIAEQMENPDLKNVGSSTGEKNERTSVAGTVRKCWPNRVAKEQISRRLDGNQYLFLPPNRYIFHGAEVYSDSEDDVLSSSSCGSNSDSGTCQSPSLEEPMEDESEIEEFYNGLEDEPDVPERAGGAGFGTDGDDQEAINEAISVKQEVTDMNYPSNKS
Test: mass spectrometry based SIRT1 deacetylation assay (activation)
Type: biochemical
Details: 0.5 μM peptide substrate, 120 μM βNAD+, 10 nM SIRT1, 25 min at 25° C.; for EC1.5 (concentration of test compound that results in 150% activation of SIRT1): NA = not active in the assay; for Emax: read-out: % FOLD ACT. (percent maximum fold activation of SIRT1)

EC1.5 (concentration of test compound that results in 150% activation of SIRT1)	Emax	% FOLD ACT. (percent maximum fold activation of SIRT1)	SMILES
200 NM	221%	–	O=C(Nc1ccccc1-c1nc2cc(CN3CC[C@@H](O)C3)cnc2s1)c1ccc2ccccc2n1 [Compound 104]
913 NM	185%	–	O=C(Nc1ccccc1-c1nc2cc(CN3CC[C@@H](F)C3)cnc2s1)c1cccc(-c2cccnc2)c1 [Compound 27]
2970 NM	183%	–	O=C(Nc1ccccc1-c1nc2cc(CN3CCNCC3)cnc2s1)c1ccnc(-c2ccccc2)n1 [Compound 73]
1440 NM	201%	–	O=C(Nc1ccccc1-c1nc2cc(CN3CC[C@H](F)C3)cnc2s1)c1ccc2ccccc2n1 [Compound 100]
144 NM	477%	–	O=C(Nc1ccccc1-c1nc2cc(CN3CCCC3)cnc2s1)c1cccc(-c2ccccc2)n1 [Compound 60]
66 NM	837%	–	O=C(Nc1ccccc1-c1nc2cc(CN3CCOCC3)cnc2s1)c1cccc(-c2cccc(F)c2)n1 [Compound 53]
859 NM	303%	–	O=C(Nc1ccccc1-c1nc2cc(CN3CCNCC3)cnc2s1)c1cnc2ccccc2n1 [Compound 63]
74 NM	> 500%	–	O=C(Nc1ccccc1-c1nc2cc(CN3CCOCC3)cnc2s1)c1cccc(-c2ccccc2)n1 [Compound 55]
78 NM	578%	–	NC1CCN(Cc2cnc3sc(-c4ccccc4NC(=O)c4cccc(-c5ccccc5)c4)nc3c2)CC1 [Compound 11]
4410 NM	333%	–	O=C(Nc1ccccc1-c1nc2cc(CN3CCNCC3)cnc2s1)c1nc2ccccc2s1 [Compound 91]
503 NM	446%	–	Cc1nc(-c2cccc(C(=O)Nc3ccccc3-c3nc4cc(CN5CCNCC5)cnc4s3)c2)cs1 [Compound 46]
1060 NM	178%	–	O=C(Nc1ccccc1-c1nc2cc(CN3CCSCC3)cnc2s1)c1ccc2ccccc2n1 [Compound 108]
78 NM	> 500%	–	O=C(Nc1ccccc1-c1nc2cc(CN3CCCC3)cnc2s1)c1cccc(-c2cccc(F)c2)n1 [Compound 61]
469 NM	203%	–	O=C(Nc1ccccc1-c1nc2cc(CN3CC[C@@H](F)C3)cnc2s1)c1cccc(-c2ccccc2)c1 [Compound 25]
82 NM	–	–	COCCN1CCN(Cc2cnc3sc(-c4ccccc4NC(=O)c4cccc(-c5ccccc5)n4)nc3c2)CC1 [Compound 47]
16700 NM	182%	–	COCCN1CCN(Cc2cnc3sc(-c4ccccc4NC(=O)c4sc(-c5cccnc5)nc4C)nc3c2)CC1 [Compound 85]
746 NM	274%	–	O=C(Nc1ccccc1-c1nc2cc(CN3CCOCC3)cnc2s1)c1cccc(-c2ccncc2)c1 [Compound 6]
150 NM	182%	–	O=C(Nc1ccccc1-c1nc2cc(Cn3ccnc3)cnc2s1)c1ccc2ccccc2n1 [Compound 94]
340 NM	471%	–	O=C(Nc1ccccc1-c1nc2cc(CN3CCNCC3)cnc2s1)c1cccc(-c2ccccn2)c1 [Compound 8]
88 NM	497%	–	COCCN1CCN(Cc2cnc3sc(-c4ccccc4NC(=O)c4cccc(-c5cccc(Cl)c5)n4)nc3c2)CC1 [Compound 138]
1640 NM	172%	–	O=C(Nc1ccccc1-c1nc2cc(CN3CCOCC3)cnc2s1)c1cncc(-c2cccc(F)c2)c1 [Compound 51]
652 NM	275%	–	COCCN1CCN(Cc2cnc3sc(-c4ccccc4NC(=O)c4cccc(-c5csc(C)n5)c4)nc3c2)CC1 [Compound 41]
270 NM	> 500%	–	N[C@@H]1CCN(Cc2cnc3sc(-c4ccccc4NC(=O)c4ccc5ccccc5n4)nc3c2)C1 [Compound 109]

EC1.5 (concentration of test compound that results in 150% activation of SIRT1)	Emax	% FOLD ACT. (percent maximum fold activation of SIRT1)	SMILES
215 NM	236%	–	O=C(Nc1ccccc1-c1nc2cc(CN3CC[C@@H](F)C3)cnc2s1)c1cccc(-n2cccn2)c1 [Compound 43]
14 NM	272%	–	COCCN1CCN(Cc2cnc3sc(-c4ccccc4NC(=O)c4cc(-c5ccccc5)cn4C)nc3c2)CC1 [Compound 88]
160 NM	252%	–	O=C(Nc1ccccc1-c1nc2cc(CN3CCCC3)cnc2s1)c1ccc2ccccc2n1 [Compound 95]
829 NM	226%	–	O=C(Nc1ccccc1-c1nc2cc(CN3CCCC3)cnc2s1)c1cc(-c2ccccc2)n[nH]1 [Compound 153]
492 NM	316%	–	O=C(Nc1ccccc1-c1nc2cc(CN3CCNCC3)cnc2s1)c1cccc(-c2ccncc2)c1 [Compound 10]
845 NM	224%	–	[2H]c1c([2H])c([2H])c(-c2cccc(C(=O)Nc3ccccc3-c3nc4cc(CN5CCCC5)cnc4s3)c2)c([2H])c1[2H] [Compound 147]
395 NM	222%	–	O=C(Nc1ccccc1-c1nc2cc(CN3CCOCC3)cnc2s1)c1cccc(-c2ccccc2F)c1 [Compound 48]
620 NM	> 500%	–	NC1CCN(Cc2cnc3sc(-c4ccccc4NC(=O)c4ccc5ccccc5n4)nc3c2)CC1 [Compound 115]
40 NM	500%	–	COCCN1CCN(Cc2cnc3sc(-c4ccccc4NC(=O)c4cccc(-c5cccc(C#N)c5)n4)nc3c2)CC1 [Compound 148]
674 NM	405%	–	C[C@@H]1CN(Cc2cnc3sc(-c4ccccc4NC(=O)c4cccc(-c5cccnc5)c4)nc3c2)C[C@H](C)N1 [Compound 16]
421 NM	236%	–	COc1ccc(-c2ccc(C(=O)Nc3ccccc3-c3nc4cc(CN5CCOCC5)cnc4s3)o2)cc1 [Compound 74]
462 NM	378%	–	O=C(Nc1ccccc1-c1nc2cc(CN3C[C@@H]4C[C@H]3CN4)cnc2s1)c1cccc(-c2cccnc2)c1 [Compound 29]
144 NM	569%	–	COCCN1CCN(Cc2cnc3sc(-c4ccccc4NC(=O)c4cccc(-n5cccn5)c4)nc3c2)CC1 [Compound 45]
2620 NM	417%	–	CC(C)NCc1cnc2sc(-c3ccccc3NC(=O)c3cccc(-c4ccncc4)c3)nc2c1 [Compound 22]
–	437%	–	O=C(Nc1ccccc1-c1nc2cc(CN3CCNCC3)cnc2s1)c1cn2cc(Cl)ccc2n1 [Compound 125]
110 NM	538%	–	O=C(Nc1ccccc1-c1nc2cc(CN3CC[C@@H](F)C3)cnc2s1)c1cccc(-c2cccc(F)c2)n1 [Compound 54]
390 NM	–	>500%	N[C@@H]1CCN(Cc2cnc3sc(-c4ccccc4NC(=O)c4ccc5ccccc5n4)nc3c2)C1 [Compound 119]
1220 NM	240%	–	Cc1nc(-c2cccnc2)sc1C(=O)Nc1ccccc1-c1nc2cc(CN3CC[C@@H](N)C3)cnc2s1 [Compound 79]
2790 NM	285%	–	O=C(Nc1ccccc1-c1nc2cc(CN3CCNCC3)cnc2s1)c1cccc(-c2nnn[nH]2)c1 [Compound 76]
1310 NM	227%	–	O=C(Nc1ccccc1-c1nc2cc(CN3CCOCC3)cnc2s1)c1cn2cc(F)ccc2n1 [Compound 128]
687 NM	> 500%	–	O=C(Nc1ccccc1-c1nc2ccc(CN3CCNCC3)nc2s1)c1ccc2ccccc2n1 [Compound 69]
106 NM	500%	–	COCCN1CCN(Cc2cnc3sc(-c4ccccc4NC(=O)c4cc(C)nc(-c5ccccc5)n4)nc3c2)CC1 [Compound 131]
